The term Km denotes the concentration of substrate that gives half-maximal velocity.

In the test the test system is T1, AMWEst.
T1 construct: primer keeps native start codon (predicted signal peptide 1-22, LHA-EQ); ultrafiltered extracellular medium, not purified; about 50 kDa on SDS-PAGE, probably N-glycosylated
Put plainly: spectrophotometric p-nitrophenol release at […] nm, Lineweaver-Burk plot. To be noted: 50 mM Tris/HCl pH 8.5, 40 mM CaCl2, 60 °C, 20 min; substrate 0.1-10 mM; concentrated extracellular medium of recombinant yeast. The test is classed as biochemical, uncultured bacterium.

`CCCCCCCCCCCC(=O)Oc1ccc([N+](=O)[O-])cc1` [pNP12, p-nitrophenyl laurate]: the Km was 1020 µM.

Source of the values: publication PMC10781878, “AMWEst, a new thermostable and detergent-tolerant esterase retrieved from the Albian aquifer” (Applied Microbiology and Biotechnology, 2024).
